Key:
[1] = biological target: T1, Beta-1 adrenergic receptor (Homo sapiens, UniProt P08588)
Description: Activity at human beta-1 adrenergic receptor expressed in CHO cells by stimulation of cAMP production

[2] = Half life in po dosed Beagle dog; assay type: ADME, organism-based, Canis lupus familiaris; conditions: in vivo
[3] = Bioavailability in Beagle dog; assay type: ADME, organism-based, Canis lupus familiaris; conditions: in vivo
[4] = Volume of distribution in Beagle dog; assay type: ADME, organism-based, Canis lupus familiaris; conditions: in vivo, read-out: Vss
[5] = Clearance in Beagle dog; assay type: ADME, organism-based, Canis lupus familiaris; conditions: in vivo
[6] = biological target: T2, Beta-2 adrenergic receptor (Homo sapiens, UniProt P07550)
T2 sequence (P07550 whole entry): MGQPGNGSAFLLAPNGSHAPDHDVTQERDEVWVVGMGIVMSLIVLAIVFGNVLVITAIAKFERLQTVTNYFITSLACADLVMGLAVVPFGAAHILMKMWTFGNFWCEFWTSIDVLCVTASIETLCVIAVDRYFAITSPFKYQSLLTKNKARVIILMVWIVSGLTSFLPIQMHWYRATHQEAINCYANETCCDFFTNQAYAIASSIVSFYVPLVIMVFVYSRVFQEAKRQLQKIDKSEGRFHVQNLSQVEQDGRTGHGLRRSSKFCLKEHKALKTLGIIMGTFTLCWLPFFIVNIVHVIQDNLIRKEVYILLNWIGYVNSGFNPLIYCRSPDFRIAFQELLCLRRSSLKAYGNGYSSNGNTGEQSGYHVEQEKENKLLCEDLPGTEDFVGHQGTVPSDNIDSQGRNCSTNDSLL
Description: Activity at human beta-2 adrenergic receptor expressed in CHO cells by stimulation of cAMP production

[7] = AUC(0-infinity) in po dosed Beagle dog; assay type: ADME, organism-based, Canis lupus familiaris; parameters: time infinity, route oral; conditions: plasma
[8] = biological target: Beta-3 adrenergic receptor (Homo sapiens, UniProt P13945)
Sequence of Beta-3 adrenergic receptor (P13945 whole entry): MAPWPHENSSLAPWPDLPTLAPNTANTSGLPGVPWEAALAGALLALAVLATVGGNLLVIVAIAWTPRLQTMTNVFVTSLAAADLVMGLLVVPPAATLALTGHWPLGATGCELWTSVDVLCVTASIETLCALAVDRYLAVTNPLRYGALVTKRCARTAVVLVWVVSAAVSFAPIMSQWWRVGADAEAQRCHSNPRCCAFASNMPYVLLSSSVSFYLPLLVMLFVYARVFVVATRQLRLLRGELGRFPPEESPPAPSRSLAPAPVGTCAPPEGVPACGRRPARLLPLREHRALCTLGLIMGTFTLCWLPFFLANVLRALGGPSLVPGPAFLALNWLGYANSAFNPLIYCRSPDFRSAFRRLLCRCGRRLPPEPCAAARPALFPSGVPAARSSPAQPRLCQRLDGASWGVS
Description: Activity at human beta-3 adrenergic receptor expressed in CHO cells by stimulation of cAMP production

Mus musculus [9] = experiment: Decrease in plasma insulin level in db/db mouse at 1 mg/kg, po after 14 days; assay type: functional
Mus musculus [10] = experiment: Decrease in glycosylated hemoglobin in db/db mouse at 1 mg/kg, po after 14 days; assay type: functional; parameters: scale not given: the % may be the effect or the level left
Mus musculus [11] = experiment: Decrease in plasma glucose level in db/db mouse at 1 mg/kg, po after 14 days; assay type: functional
Mus musculus [12] = experiment: Decrease in plasma insulin level in db/db mouse at 0.1 mg/kg, po after 14 days; assay type: functional
Mus musculus [13] = experiment: Decrease in glycosylated hemoglobin in db/db mouse at 0.1 mg/kg, po after 14 days; assay type: functional; parameters: scale not given: the % may be the effect or the level left
Mus musculus [14] = experiment: Decrease in glycosylated hemoglobin in db/db mouse at 0.01 mg/kg, po after 14 days; assay type: functional; parameters: scale not given: the % may be the effect or the level left
Mus musculus [15] = experiment: Decrease in plasma glucose level in db/db mouse at 0.1 mg/kg, po after 14 days; assay type: functional
Mus musculus [16] = experiment: Decrease in plasma glucose level in db/db mouse at 0.01 mg/kg, po after 14 days; assay type: functional
Mus musculus [17] = experiment: Decrease in plasma insulin level in db/db mouse at 0.01 mg/kg, po after 14 days; assay type: functional
[18] = Half life in po dosed cynomolgus monkey; assay type: ADME, organism-based, Macaca fascicularis; conditions: in vivo
Mus musculus [19] = experiment: Increase of thermogenic activity in CD1 mouse at 3 mg/kg; assay type: functional, organism-based; parameters: dose 3 mg/kg
Mus musculus [20] = experiment: Decrease in glycosylated hemoglobin in db/db mouse at 100 mg/kg, po after 14 days; assay type: functional; parameters: scale not given: the % may be the effect or the level left
[21] = biological target: T2, Beta-2 adrenergic receptor; experiment: Displacement of [125I]cyanopindolol from human cloned beta-2 adrenergic receptor expressed in Sf9 cells
Mus musculus [22] = experiment: Decrease in glycosylated hemoglobin in db/db mouse at 30 mg/kg, po after 14 days; assay type: functional; parameters: scale not given: the % may be the effect or the level left
[23] = Renal clearance in Beagle dog; assay type: ADME, organism-based, Canis lupus familiaris, Kidney; conditions: in vivo, read-out: CL_renal
Mus musculus [24] = experiment: Decrease in plasma glucose level in db/db mouse at 100 mg/kg, po after 14 days; assay type: functional
Mus musculus [25] = experiment: Increase of thermogenic activity in CD1 mouse at 10 mg/kg; assay type: functional, organism-based; parameters: dose 10 mg/kg
[26] = Half life in iv dosed cynomolgus monkey; assay type: ADME, organism-based, Macaca fascicularis; conditions: in vivo
[27] = Half life in Beagle dog at 0.2 mg/kg, iv; assay type: ADME, organism-based, Canis lupus familiaris; parameters: dose 0.2 mg/kg, route intravenous; conditions: in vivo
[28] = biological target: Beta-2 adrenergic receptor and beta-3 adrenergic receptor (Homo sapiens, UniProt P07550+P13945); experiment: Ratio of pEC50 for human beta-3 adrenergic receptor to pKi for human beta2 adrenergic receptor; assay type: functional
[29] = Half life in Wistar Han rat at 1 mg/kg, po; assay type: ADME, organism-based; parameters: dose 1 mg/kg, route oral; conditions: in vivo
[30] = Clearance in cynomolgus monkey; assay type: ADME, organism-based, Macaca fascicularis; conditions: in vivo
[31] = Half life in Wistar Han rat at 1 mg/kg, iv; assay type: ADME, organism-based; parameters: dose 1 mg/kg, route intravenous; conditions: in vivo
Mus musculus [32] = experiment: Decrease in plasma glucose level in db/db mouse at 10 mg/kg, po after 14 days; assay type: functional
[33] = Volume of distribution in Wistar Han rat at 1 mg/kg, iv or 1 mg/kg, po; assay type: ADME, organism-based; conditions: in vivo, read-out: Vss
Mus musculus [34] = experiment: Decrease in plasma insulin level in db/db mouse at 10 mg/kg, po after 14 days; assay type: functional
[35] = Renal clearance in Wistar Han rat at 1 mg/kg, iv or 1 mg/kg, po; assay type: ADME, organism-based, Kidney; conditions: in vivo, read-out: CL_renal
Mus musculus [36] = experiment: Decrease in plasma insulin level in db/db mouse at 100 mg/kg, po after 14 days; assay type: functional
Mus musculus [37] = experiment: Decrease in plasma insulin level in db/db mouse at 30 mg/kg, po after 14 days; assay type: functional
[38] = Bioavailability in Wistar Han rat at 1 mg/kg, po and 1 mg/kg, iv; assay type: ADME, organism-based; conditions: in vivo
[39] = Clearance in Wistar Han rat at 1 mg/kg, iv or 1 mg/kg, po; assay type: ADME, organism-based; conditions: in vivo
Mus musculus [40] = experiment: Increase of thermogenic activity in CD1 mouse at 30 mg/kg; assay type: functional, organism-based; parameters: dose 30 mg/kg
Mus musculus [41] = experiment: Decrease in glycosylated hemoglobin in db/db mouse at 10 mg/kg, po after 14 days; assay type: functional; parameters: scale not given: the % may be the effect or the level left
[42] = biological target: T1, Beta-1 adrenergic receptor; experiment: Displacement of [125I]cyanopindolol from human cloned beta-1 adrenergic receptor expressed in Sf9 cells
Mus musculus [43] = experiment: Decrease in plasma glucose level in db/db mouse at 30 mg/kg, po after 14 days; assay type: functional
[44] = Volume of distribution in cynomolgus monkey; assay type: ADME, organism-based, Macaca fascicularis; conditions: in vivo, read-out: Vss
Mus musculus [45] = experiment: Decrease in plasma insulin level in db/db mouse at 3 mg/kg, po after 14 days; assay type: functional
Mus musculus [46] = experiment: Decrease in glycosylated hemoglobin in db/db mouse at 3 mg/kg, po after 14 days; assay type: functional; parameters: scale not given: the % may be the effect or the level left
Mus musculus [47] = experiment: Decrease in glycosylated hemoglobin in db/db mouse at 0.3 mg/kg, po after 14 days; assay type: functional; parameters: scale not given: the % may be the effect or the level left
Mus musculus [48] = experiment: Decrease in plasma glucose level in db/db mouse at 0.03 mg/kg, po after 14 days; assay type: functional
Mus musculus [49] = experiment: Decrease in glycosylated hemoglobin in db/db mouse at 0.03 mg/kg, po after 14 days; assay type: functional; parameters: scale not given: the % may be the effect or the level left
Mus musculus [50] = experiment: Decrease in plasma glucose level in db/db mouse at 0.3 mg/kg, po after 14 days; assay type: functional
Mus musculus [51] = experiment: Decrease in plasma glucose level in db/db mouse at 3 mg/kg, po after 14 days; assay type: functional
Mus musculus [52] = experiment: Decrease in plasma insulin level in db/db mouse at 0.3 mg/kg, po after 14 days; assay type: functional
Mus musculus [53] = experiment: Decrease in plasma insulin level in db/db mouse at 0.03 mg/kg, po after 14 days; assay type: functional

T1 sequence (P08588 whole entry): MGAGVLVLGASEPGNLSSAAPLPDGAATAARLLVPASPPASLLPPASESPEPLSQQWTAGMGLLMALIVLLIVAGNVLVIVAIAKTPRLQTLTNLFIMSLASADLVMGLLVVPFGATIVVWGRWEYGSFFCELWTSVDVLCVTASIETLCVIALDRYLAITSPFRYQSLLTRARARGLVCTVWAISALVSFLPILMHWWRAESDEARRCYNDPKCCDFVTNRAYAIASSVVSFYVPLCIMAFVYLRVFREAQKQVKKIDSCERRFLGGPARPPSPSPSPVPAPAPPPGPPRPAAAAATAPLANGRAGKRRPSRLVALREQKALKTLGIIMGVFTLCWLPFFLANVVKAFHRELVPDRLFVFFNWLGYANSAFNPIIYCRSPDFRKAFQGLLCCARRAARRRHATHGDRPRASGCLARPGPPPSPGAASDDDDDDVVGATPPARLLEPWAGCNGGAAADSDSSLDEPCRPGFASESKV

C[C@H](CNc1cccc(-c2cccc(C(=O)O)c2)c1)NC[C@H](O)c1cccc(Cl)c1
EC50 [1]: 6.31 nM | half-life [2]: 2.5 h | bioavailability [3]: 28% | Vd [4]: 0.45 L/kg | clearance [5]: 7.3 mL/min/kg | EC50 [6]: 50.1 nM | AUC(0-inf) [7]: 135 ng·h/mL | EC50 [8]: 0.1 nM

O=C(O)c1cccc(-c2cccc(NCCNC[C@H](O)c3cccc(Cl)c3)c2)n1
EC50 [1]: 5010 nM | EC50 [6]: 10000 nM | EC50 [8]: 39.8 nM

Cc1ccc(C(=O)O)cc1-c1cccc(NCCNC[C@H](O)c2cccc(Cl)c2)c1
EC50 [1]: 794 nM | half-life [2]: 2.4 h | bioavailability [3]: 37% | Vd [4]: 1.37 L/kg | clearance [5]: 7.1 mL/min/kg | EC50 [6]: 631 nM | AUC(0-inf) [7]: 173 ng·h/mL | EC50 [8]: 1.58 nM

C[C@H](CNc1cccc(-c2ccc(C(=O)O)cc2C(=O)O)c1)NC[C@H](O)c1cccc(Cl)c1
EC50 [1]: 2510 nM | Vd [4]: 0.99 L/kg | clearance [5]: 9.3 mL/min/kg | EC50 [6]: > 10000 nM | EC50 [8]: 0.2 nM

O=C(O)c1ccncc1-c1cccc(NCCNC[C@H](O)c2cccc(Cl)c2)c1
EC50 [1]: 10000 nM | Activity (Mus musculus [9]): 1.4 ng/mL | Activity (Mus musculus [10]): 4.8% | plasma glucose (Mus musculus [11]): 180 mg/dL | Activity (Mus musculus [12]): 2.8 ng/mL | half-life [2]: 1.7 h | bioavailability [3]: 27% | Vd [4]: 0.33 L/kg | clearance [5]: 5.64 mL/min/kg | EC50 [6]: > 10000 nM | Activity (Mus musculus [13]): 5% | Activity (Mus musculus [14]): 5.6% | plasma glucose (Mus musculus [15]): 181 mg/dL | AUC(0-inf) [7]: 161 ng·h/mL | EC50 [8]: 0.1 nM | plasma glucose (Mus musculus [16]): 351 mg/dL | Activity (Mus musculus [17]): 11.4 ng/mL

C[C@H](CNc1cccc(-c2ccc(C(=O)O)cc2)c1)NC[C@H](O)c1cccc(Cl)c1
EC50 [1]: 794 nM | EC50 [6]: 1580 nM | EC50 [8]: 31.6 nM

O=C(O)c1cccc(-c2cccc(NCCNC[C@H](O)c3cccc(Cl)c3)c2)c1 [SOLABEGRON]
EC50 [1]: 3980 nM | half-life [18]: 5.2 h | Activity (Mus musculus [19]): Dose-dependent effect | Activity (Mus musculus [20]): 7.06% | Ki [21]: 1580 nM | Activity (Mus musculus [22]): 7.6% | half-life [2]: 5 h | CL renal [23]: 0.014 mL/min/kg | bioavailability [3]: 43% | plasma glucose (Mus musculus [24]): 185 mg/dL | Activity (Mus musculus [25]): Dose-dependent effect | half-life [26]: 4.5 h | Vd [4]: 0.34 L/kg | half-life [27]: 3.3 h | Ratio [28]: 398 | half-life [29]: 3 h | clearance [30]: 5.5 mL/min/kg | clearance [5]: 2.4 mL/min/kg | half-life [31]: 2.1 h | EC50 [6]: 1260 nM | plasma glucose (Mus musculus [32]): 384 mg/dL | Vd [33]: 1.3 L/kg | Activity (Mus musculus [34]): 6.3 ng/mL | CL renal [35]: 0.16 mL/min/kg | Activity (Mus musculus [36]): 0.9 ng/mL | Activity (Mus musculus [37]): 4.4 ng/mL | bioavailability [38]: 30% | clearance [39]: 18.1 mL/min/kg | AUC(0-inf) [7]: 595 ng·h/mL | Activity (Mus musculus [40]): Dose-dependent effect | EC50 [8]: 3.98 nM | Activity (Mus musculus [41]): 7.3% | Ki [42]: 398 nM | plasma glucose (Mus musculus [43]): 207 mg/dL | Vd [44]: 0.556 L/kg

C[C@H](CNc1cccc(-c2ncccc2C(=O)O)c1)NC[C@H](O)c1cccc(Cl)c1
EC50 [1]: 794 nM | EC50 [6]: 1580 nM | EC50 [8]: 31.6 nM

C[C@H](CNc1cccc(-c2ccccc2C(=O)O)c1)NC[C@H](O)c1cccc(Cl)c1
EC50 [1]: 631 nM | Activity (Mus musculus [45]): 3 ng/mL | Activity (Mus musculus [46]): 5.4% | half-life [2]: 2.4 h | bioavailability [3]: 40% | Activity (Mus musculus [47]): 5.7% | Vd [4]: 0.37 L/kg | plasma glucose (Mus musculus [48]): 417 mg/dL | Activity (Mus musculus [49]): 7.2% | clearance [5]: 11.3 mL/min/kg | plasma glucose (Mus musculus [50]): 238 mg/dL | EC50 [6]: 1000 nM | plasma glucose (Mus musculus [51]): 222 mg/dL | Activity (Mus musculus [52]): 6.7 ng/mL | AUC(0-inf) [7]: 310 ng·h/mL | EC50 [8]: 0.251 nM | Activity (Mus musculus [53]): 13.7 ng/mL

COC(=O)c1cccc(-c2cccc(NCCNC[C@H](O)c3cccc(Cl)c3)c2)c1
EC50 [1]: 1260 nM | EC50 [6]: 501 nM | EC50 [8]: 158 nM

O=C(O)c1cncc(-c2cccc(NCCNC[C@H](O)c3cccc(Cl)c3)c2)c1
EC50 [1]: 3160 nM | EC50 [6]: 3980 nM | EC50 [8]: 63.1 nM
